In assay [1] the target is T1, Nucleoside diphosphate phosphatase ENTPD5 (Homo sapiens) (UniProt O75356).
T1 sequence (whole entry): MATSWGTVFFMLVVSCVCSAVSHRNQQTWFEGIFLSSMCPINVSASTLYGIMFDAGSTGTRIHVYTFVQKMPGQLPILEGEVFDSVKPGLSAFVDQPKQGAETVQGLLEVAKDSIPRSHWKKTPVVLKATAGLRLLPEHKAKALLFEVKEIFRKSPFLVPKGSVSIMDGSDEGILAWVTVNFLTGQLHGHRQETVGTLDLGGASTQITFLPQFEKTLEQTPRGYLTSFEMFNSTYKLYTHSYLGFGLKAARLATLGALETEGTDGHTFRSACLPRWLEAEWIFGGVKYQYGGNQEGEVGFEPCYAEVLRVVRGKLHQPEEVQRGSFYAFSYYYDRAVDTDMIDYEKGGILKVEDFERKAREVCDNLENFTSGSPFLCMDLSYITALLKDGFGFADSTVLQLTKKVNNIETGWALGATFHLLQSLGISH
The assay is described as follows: Inhibition of human recombinant ENTPD5 expressed in insect cells assessed as reduction in UDP hydrolysis at 1 uM incubated for 1 hr in presence of UMP, GTP and ATP by Escherichia coli UMP kinase pyrH catalyzed UMP phosphorylation coupled luciferase assay.

Assay [2] addresses T2, Uridylate kinase (Escherichia coli (strain K12)) (UniProt P0A7E9).
T2 sequence (whole entry): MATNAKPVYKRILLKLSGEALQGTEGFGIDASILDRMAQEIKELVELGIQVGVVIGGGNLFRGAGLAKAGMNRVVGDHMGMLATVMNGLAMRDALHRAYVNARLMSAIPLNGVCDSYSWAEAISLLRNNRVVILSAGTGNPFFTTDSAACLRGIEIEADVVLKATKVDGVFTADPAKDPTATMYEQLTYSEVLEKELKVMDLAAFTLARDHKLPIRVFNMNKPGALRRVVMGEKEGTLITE
The assay is described as follows: Inhibition of recombinant Escherichia coli UMP kinase pyrH catalyzed UMP phosphorylation in presence of GTP and ATP incubated for 1 hr by luminescence based assay.

Assay [3] concerns the target T1, Nucleoside diphosphate phosphatase ENTPD5 (Homo sapiens). Nature of the assay: Inhibition of human recombinant ENTPD5 expressed in insect cells assessed as reduction in UDP hydrolysis up to 10 uM incubated for 1 hr in presence of UMP, GTP and ATP by Escherichia coli UMP kinase pyrH catalyzed UMP phosphorylation coupled luciferase assay.
Assay [4] shares this target. The assay is described as follows: Inhibition of human recombinant ENTPD5 expressed in insect cells assessed as reduction in reduction in UDP hydrolysis by measuring inorganic phosphate release incubated for 1 hr by malachite green based assay.

Active and inactive are the calls of the source. No rule for the calls is given here.

With `Cc1ccc(NC2=NC(=O)/C(=C/c3ccc(-c4ccc(C(=O)O)cc4)o3)S2)cc1Cl`, the inhibition entry in assay [1] and in assay [4] was “Active” throughout. The inhibition entry in assay [2] was “inactive”. In assay [3], the inhibition entry is “Dose-dependent effect”.
For `O=C(Nc1c[nH]c(=O)[nH]c1=O)c1cccc(N2C(=O)c3ccc([N+](=O)[O-])cc3C2=O)c1`, the inhibition result in assay [1] and in assay [4] was “Active” throughout. In assay [2], the inhibition entry is “inactive”. The inhibition entry in assay [3] was “Dose-dependent effect”.
As to `O=S(=O)(c1ccc2ccccc2c1)N(CCc1csc2nc(-c3ccc4ccccc4c3)cn12)Cc1ccco1`, the inhibition entry in assay [1] and in assay [4] was “Active” each time. The inhibition entry in assay [2] was “inactive”. In addition, in assay [3], the inhibition entry is “Dose-dependent effect”.
On to `COc1ccc(C(c2cc(C(C)(C)C)c(O)c(C(C)(C)C)c2)N2CCOCC2)cc1` (centres undefined), for which the inhibition entry in assay [1] and in assay [4] was “Active” in each case. For the same compound, the inhibition entry in assay [2] is “inactive”. Besides, the inhibition entry in assay [3] is “Dose-dependent effect”.
On to `COc1ccc(-n2cccc2/C=C2\C(=O)NC(=S)N(c3ccc(Br)cc3)C2=O)cc1`, for which the inhibition result in assay [1] and in assay [4] was “Active” in each case. Also, the inhibition result in assay [2] is “inactive”. The inhibition entry in assay [3] was “Dose-dependent effect”.
Regarding `S=C(Nc1ccccc1)Nc1ccc2nc(-c3ccco3)c(-c3ccco3)nc2c1`, the inhibition entry in assay [1] and in assay [4] was “Active” throughout. The inhibition result in assay [2] is “inactive”. For the same compound, in assay [3], the inhibition entry is “Dose-dependent effect”.
Regarding `COc1ccc2c(c1)C1C=CCC1C(c1ccc([N+](=O)[O-])cc1)N2` (centres undefined), the inhibition result in assay [1] and in assay [4] was “Active” throughout. Besides, in assay [2], the inhibition result was “inactive”. In addition, the inhibition entry in assay [3] is “Dose-dependent effect”.
For `CN1C(=O)c2ccc(NC(=S)NC(=O)CC34CC5CC(CC(C5)C3)C4)cc2C1=O`, the inhibition result in assay [1] and in assay [4] was “Active” throughout. Moreover, the inhibition entry in assay [2] is “inactive”. Further, the inhibition entry in assay [3] is “Dose-dependent effect”.
As to `O=C(O)C1=CC(C(c2ccc(O)c(C(=O)O)c2)c2ccc(O)c(C(=O)O)c2)C=CC1=O` (centres undefined), the inhibition entry in assay [1] and in assay [4] was “Active” in each case. For the same compound, in assay [2], the inhibition entry was “inactive”. Also, the inhibition entry in assay [3] is “Dose-dependent effect”.
Regarding `CN(C)c1ccc(/C=C(\NC(=O)c2cccc(F)c2)C(=O)N/N=C/c2cc(Cl)cc([N+](=O)[O-])c2O)cc1`, the inhibition result in assay [1] and in assay [4] was “Active” each time. Moreover, the inhibition result in assay [2] was “inactive”. The inhibition entry in assay [3] was “Dose-dependent effect”.
Regarding `O=C1C=CC(=O)c2c1c(-c1ccccc1)nn2-c1ccccc1`, the inhibition result in assay [1] and in assay [4] was “Active” each time. Also, the inhibition result in assay [2] is “inactive”. Further, the inhibition entry in assay [3] is “Dose-dependent effect”.
Take `Cc1ccc(C2=C/C(=C/c3ccc(C)c([N+](=O)[O-])c3)C(=O)O2)c(C)c1`: the inhibition result in assay [1] and in assay [4] was “Active” in each case. Also, in assay [2], the inhibition result was “inactive”. Further, the inhibition result in assay [3] is “Dose-dependent effect”.
For `O=C1/C(=C/c2ccc(O)c(O)c2)SC(=S)N1c1ccc([N+](=O)[O-])cc1`, the inhibition entry in assay [1] and in assay [4] was “Active” throughout. Also, in assay [2], the inhibition entry is “inactive”. The inhibition entry in assay [3] was “Dose-dependent effect”.
Turning to `Cc1ccc(-c2ccc(C=C3C(=O)NC(=O)NC3=O)o2)c(Br)c1`, the inhibition entry in assay [1] and in assay [4] was “Active” each time. Further, in assay [2], the inhibition result is “inactive”. For the same compound, in assay [3], the inhibition result was “Dose-dependent effect”.
With `O=S(=O)(c1cccc(C(F)(F)F)c1)N(CCc1csc2nc(-c3ccc4ccccc4c3)cn12)Cc1ccco1`, the inhibition entry in assay [1] and in assay [4] was “Active” throughout. Moreover, the inhibition entry in assay [2] is “inactive”. Besides, the inhibition result in assay [3] is “Dose-dependent effect”.
In the case of `O=C1/C(=C\C=C\c2ccco2)SC(=S)N1Cc1ccccc1`, the inhibition entry in assay [1] and in assay [4] was “Active” in each case. In addition, in assay [2], the inhibition entry is “inactive”. Moreover, the inhibition result in assay [3] was “Dose-dependent effect”.
`O=C(NC(=S)Nc1cc(Cl)c(O)c(Cl)c1)c1cc2ccccc2o1`: the inhibition entry in assay [1] and in assay [4] was “Active” each time. In addition, in assay [2], the inhibition result is “inactive”. The inhibition entry in assay [3] is “Dose-dependent effect”.
On to `N#CC1=C(N)NC(SCC(=O)c2cc3ccccc3oc2=O)=C(C#N)C1=C1C=CC(=O)C=C1`, for which the inhibition result in assay [1] and in assay [4] was “Active” throughout. In addition, in assay [2], the inhibition result was “inactive”. Besides, the inhibition entry in assay [3] was “Dose-dependent effect”.
Turning to `O=C1NC(=S)N(c2ccc(Br)cc2)C(=O)/C1=C/c1ccc(-c2ccc(F)cc2)o1`, the inhibition entry in assay [1] and in assay [4] was “Active” throughout. Also, in assay [2], the inhibition result was “inactive”. For the same compound, the inhibition entry in assay [3] is “Dose-dependent effect”.
On to `O=C1NC(=S)N(c2ccc(Cl)cc2)C(=O)/C1=C\c1ccc(-c2ccccc2C(=O)O)o1`, for which the inhibition entry in assay [1] and in assay [4] was “Active” in each case. The inhibition result in assay [2] is “inactive”. Further, the inhibition result in assay [3] was “Dose-dependent effect”.
For `O=C1C=Cc2ccccc2/C1=C/NNC(=O)C(O)(c1ccccc1)c1ccccc1`, the inhibition result in assay [1] and in assay [4] was “Active” each time. In assay [2], the inhibition result is “inactive”. Further, the inhibition entry in assay [3] was “Dose-dependent effect”.
As for `NC1=C/C(=C2\Nc3cc(N)ccc3S2)C(=O)C=C1`, the inhibition result in assay [1] and in assay [4] was “Active” each time. The inhibition result in assay [2] was “inactive”. Besides, in assay [3], the inhibition result is “Dose-dependent effect”.
As to `COc1ccc([C@@H]2Nc3ccc(Br)cc3[C@@H]3C=CC[C@@H]32)cc1[N+](=O)[O-]`, the inhibition entry in assay [1] and in assay [4] was “Active” in each case. The inhibition result in assay [2] is “inactive”. For the same compound, the inhibition entry in assay [3] was “Dose-dependent effect”.
Take `COc1cc(-c2ccc(/C=C/c3[nH]c(=O)[nH]c(=O)c3[N+](=O)[O-])o2)c(OC)cc1Cl`: the inhibition result in assay [1] and in assay [4] was “Active” each time. Moreover, the inhibition entry in assay [2] is “inactive”. Further, the inhibition result in assay [3] is “Dose-dependent effect”.
`O=C(CCl)N(CC(=O)N1c2ccccc2-n2cccc2C1c1ccc(Cl)cc1)C1CC1` (centres undefined): the inhibition result in assay [1] and in assay [4] was “Active” in each case. Further, the inhibition entry in assay [2] is “inactive”. For the same compound, in assay [3], the inhibition entry is “Dose-dependent effect”.
Regarding `O=C1C=CC(=O)c2c1ccc1c2ccc2ccccc21`, the inhibition entry in assay [1] and in assay [4] was “Active” throughout. The inhibition entry in assay [2] is “inactive”. The inhibition result in assay [3] was “Dose-dependent effect”.
For `CCN1C(=O)/C(=C/c2cccn2C)C(=O)NC1=S`, the inhibition result in assay [1] and in assay [4] was “Active” in each case. Also, the inhibition entry in assay [2] is “inactive”. The inhibition result in assay [3] is “Dose-dependent effect”.
As to `Cc1cc(/C=C2\C(=O)NC(=S)N(c3cccc(Cl)c3)C2=O)c(C)n1-c1ccc(Br)cc1`, the inhibition entry in assay [1] and in assay [4] was “Active” throughout. For the same compound, the inhibition entry in assay [2] was “inactive”. Besides, the inhibition entry in assay [3] was “Dose-dependent effect”.
As to `N#Cc1ccccc1COc1ccc(/C=C2/SC(=S)NC2=O)cc1Br`, the inhibition result in assay [1] and in assay [4] was “Active” each time. Further, the inhibition entry in assay [2] was “inactive”. Further, the inhibition result in assay [3] was “Dose-dependent effect”.
As to `CCN(CC)c1ccc(C(Nc2ccccn2)c2ccc3cccnc3c2O)cc1` (centres undefined), the inhibition result in assay [1] and in assay [4] was “Active” each time. Also, the inhibition result in assay [2] is “inactive”. Further, the inhibition result in assay [3] was “Dose-dependent effect”.
With `O=[N+]([O-])c1cccc(C2C3CC=CC3c3cc([N+](=O)[O-])cc4c3N2CC2CC=CC42)c1` (centres undefined), the inhibition result in assay [1] and in assay [4] was “Active” throughout. In addition, in assay [2], the inhibition entry was “inactive”. The inhibition entry in assay [3] was “Dose-dependent effect”.

(Values after ChEMBL document CHEMBL4418495, “Entpd5 inhibitors” (2012).)
